Test results published in US20250052985A1, “SYSTEM AND METHOD FOR QUANTITATIVE PHASE IMAGING FOR MULTI-PARAMETRIC SCREENING OF TUMOR THERAPY RESPONSE” (UNIVERSITY OF UTAH RESEARCH FOUNDATION, priority 2023, published 2025).
Several values for one entry are separate records, joined by “and”; a condition that tells them apart may be missing. Identical values can stand only once. Like-named read-outs stand apart in the source and are kept apart here.

Columns and labels:
MDA-MB-231 cells = assay: Quantitative phase imaging (QPI) growth response, MDA-MB-231; type: cell-based; parameters: DoR QPI: scale not given here; ToR 20 μM: unit not given here; settings: for Max Asymptote / Min Asymptote: MDA-MB-231, 4-parameter Hill fit of mean SGR vs concentration, one line per replicate; for EC50: Homo sapiens
Description: (§1) In some embodiments, breast cancer cell lines are imaged, representing diverse clinical subtypes, summarized in Table 2 below, using a QPI microscope (FIG. 1A) based on differential phase contrast (DPC) microscopy and phase reconstruction via a QPI microscope system. DPC is used for image acquisition and phase reconstruction because DPC's flexible design may be customized for high throughput phase measurements. […] As illustrated in the embodiment of FIG. 1A, a QPI microscope system 100 conducts assays in a 96-well plate (e.g., a well-plate 105) with 6-point dose response curves and up to five therapies in triplicate including solvent controls, summarized in Table 4 below. As described below, in reference to FIG. 1A, a growth response of cells is measured noninvasively using QPI via a QPI microscope system 110 before being assayed using a CTG reader 115.
(§2) FIG. 1B illustrates a timeline plot 200 showing two plates (e.g., two, separate well-plates 105) set up in parallel to measure cell viability. With reference to FIG. 1B, two plates are set-up simultaneously for each experiment. A first plate 205 is incubated for 27 hours (h) post drug exposure prior to CTG analysis (3 h equilibration+24 h of imaging), which measures cell adenosine triphosphate (ATP) content as a surrogate for cell viability. A second plate 210 is imaged for 72 h after 3 h equilibration (e.g., 75 h) and followed by CTG. […] The imaging locations are imaged for 72 h, as shown by images 1700-1715 of FIG. 7.
(§3) In some embodiments, a dose-dependent change in growth, as indicated by a change in the rate of mass accumulation or loss, is a parameter that can be extracted from QPI dose-response data. […] Individual specific growth rate measurements are indicated by points in the distribution of the graph 1200 of FIG. 2A. Blue is indicative of the DMSO control and red is indicative of doxorubicin. The black outline is a kernel density function fit to the distribution of specific growth rates for each condition (e.g., *p<0.05, **p<0.01). In some embodiments, the average SGR of each condition is fit to a sigmoid dose-response curve using a Hill equation. For example, computed logistic fit parameters using a 4-parameter Hill model via the QPI microscope system 110 for all conditions are summarized in Tables 5-8 below. To determine if there is a response, as illustrated by FIG. 2B, the QPI microscope system 110 tests goodness of fit, adjusts for degrees of freedom using an F-test at significance p<0.01 by comparison to a flat line, as an indicator of no response. For cases with a better fit to the Hill equation, the 4-parameter Hill curve may be used by the QPI microscope system 110 to determine the EC50, a measure of sensitivity to therapy because it represents the effective concentration at which 50% of the cells respond to therapy, as illustrated by FIG. 10. […] A 4-parameter Hill curve is fit to each dose response plot to extract the depth of response and EC50 for each cell/drug pair. A flat line represents no response due to failure of the F-test to reject the null hypothesis that the logistic fit is indistinguishable from a flat line. […] Each color indicates a different drug or therapy used.

BT-474 cells [1] = assay: cells; settings: for Max Asymptote / Min Asymptote: BT-474, 4-parameter Hill fit of mean SGR vs concentration, one line per replicate; for Hill Slope: BT-474, Hill fit; for EC50: Homo sapiens
Description: as §1, §2, §3

MCF-7 cells [2] = assay: cells; settings: for EC50: Homo sapiens
Description: as §1, §2, §3

MCF-7 cells [3] = assay: CellTiter-Glo (CTG) ATP viability assay, MCF-7; type: cell-based; settings: for Min Asymptote: MCF-7, Hill fit of luminescence normalized to solvent control, one line per replicate; for EC50: Homo sapiens
Experimental: (§4) CTG (e.g., read by the CTG reader 115) is a cell viability assay that quantifies the amount of ATP present at the end of an experiment as an indicator of the number of live cells. The electronic controller 155 measures ATP content in each condition as a readout by a luminescent signal, which is normalized by the luminescence of the control (e.g., a control well) to determine cell viability relative to on-plate controls. In some embodiments, the CTG assay is performed by first removing 100 μL of media from each well on the well-plate 105, which is then replaced with an equal amount of CellTiter-Glo reagent (e.g., Promega, G7572). Assayed plates may be shaken at 500 RPM for 20 minutes and allowed to rest for 10 minutes. In some instances, 100 μL of volume from each well is transferred to a white 96-well plate (e.g., Perkin Elmer, 6005680). The electronic controller 155 collects luminescence data from each well using an Envision plate reader (e.g., Perkin Elmer) and normalized against the solvent control to measure ATP content. The electronic controller 155 fits a 4-parameter hill curve to the dose response to determine the EC50 and depth of response.

BT-474 cells [4] = assay: CellTiter-Glo (CTG) ATP viability assay, BT-474; type: cell-based; settings: for Min Asymptote: BT-474, Hill fit of luminescence normalized to solvent control, one line per replicate; for EC50: Homo sapiens
Experimental: as §4

[5] = 24 h QPI, MCF-7, 4-parameter Hill fit of mean SGR vs concentration, one line per replicate

With `O=c1[nH]cc(F)c(=O)[nH]1` [5FU, 5-Fluorouracil] the “Max Asymptote” value (MDA-MB-231 cells; 24 h QPI) was 0.03336, the “Min Asymptote” value (MDA-MB-231 cells; 24 h QPI) was 0.01996 and the “Hill Slope” value (MDA-MB-231 cells; 24 h QPI, MDA-MB-231, Hill fit) was 0.341. For the same molecule, the “Max Asymptote” value (MDA-MB-231 cells; 72 h QPI) was −0.009666, the “Min Asymptote” value (MDA-MB-231 cells; 72 h QPI) was 0.03351 and the “Hill Slope” value (MDA-MB-231 cells; 72 h QPI, MDA-MB-231, Hill fit) was 0.4483. The EC50 (MDA-MB-231 cells; MDA-MB-231, 24 h, 24 h QPI, MDA-MB-231, Hill fit, EC50 in μM per Table 1, read-out: log10(EC50) (converted)) was 17.4 µM, the EC50 (MDA-MB-231 cells; MDA-MB-231, 72 h, 72 h QPI, MDA-MB-231, Hill fit, EC50 in μM per Table 1, read-out: log10(EC50) (converted)) was 118 µM and the EC50 (MDA-MB-231 cells; MDA-MB-231, MDA-MB-231 cell line, QPI growth rate, read-out: EC50, QPI) was 118 µM. For the same molecule, the “DoR QPI” value (MDA-MB-231 cells; MDA-MB-231 cell line, depth of response, QPI) was 1.2, the “ToR 20 μM” value (MDA-MB-231 cells; MDA-MB-231 cell line, time of response at 20 μM) was 15.2 and the “Max Asymptote” value (BT-474 cells [1]; 24 h QPI) was 0.01107. For the same molecule, the “Min Asymptote” value (BT-474 cells [1]; 24 h QPI) was 0.009021, the “Hill Slope” value (BT-474 cells [1]; 24 h QPI) was 0.9134 and the “Max Asymptote” value (BT-474 cells [1]; 72 h QPI) was 0.007708 and 0.007733. For the same molecule, the “Min Asymptote” value (BT-474 cells [1]; 72 h QPI) was 0.008643 and 0.009665, the “Hill Slope” value (BT-474 cells [1]; 72 h QPI) was 1.5745 and 1.1389 and the “DoR QPI” value (BT-474 cells [1]; BT-474 cell line, depth of response, QPI) was 0.2. The EC50 (BT-474 cells [1]; BT-474, 24 h, read-out: log10(EC50), 24 h QPI, BT-474, Hill fit (converted), EC50 in μM per Table 1) was 0.0682 µM, the EC50 (BT-474 cells [1]; BT-474, read-out: EC50, QPI, BT-474 cell line, QPI growth rate) was 0.1 µM and the “Max Asymptote” value (MCF-7 cells [2]; [5]) was 0.02676 and 0.02665 (2×). The “Min Asymptote” value (MCF-7 cells [2]; [5]) was 0.01382 and 0.007436 (2×), the “log10(EC50)” value (MCF-7 cells [2]; 24 h QPI, MCF-7, Hill fit, EC50 in μM per Table 1) was −1.151 and the “Min Asymptote” value (MCF-7 cells [2]; 72 h QPI, MCF-7, 4-parameter Hill fit of mean SGR vs concentration, one line per replicate) was 0.0232 and 0.02426 and 0.02866. The EC50 (MCF-7 cells [2]; MCF7, 24 h, read-out: log10(EC50), 24 h QPI, MCF-7, Hill fit (converted), EC50 in μM per Table 1) was 8.57 µM, the EC50 (MCF-7 cells [2]; MCF7, read-out: EC50, QPI, MCF-7 cell line, QPI growth rate) was 25.7 µM and the “DoR QPI” value (MCF-7 cells [2]; MCF-7 cell line, depth of response, QPI) was 1.0. The “ToR 20 μM” value (MCF-7 cells [2]; MCF-7 cell line, time of response at 20 μM) was 9.4, the “Hill Slope” value (MCF-7 cells [3]; 24 h CTG, MCF-7, Hill fit) was 7.081 and the “Min Asymptote” value (MCF-7 cells [3]; 24 h CTG) was 0.9238. For the same molecule, the “Hill Slope” value (MCF-7 cells [3]; 72 h CTG, MCF-7, Hill fit) was 1.254 and 1.059 and 1.202, the “Min Asymptote” value (MCF-7 cells [3]; 72 h CTG) was 0.1952 and 0.003653 and 0.01678 and the EC50 (MCF-7 cells [3]; MCF7, 24 h, 24 h CTG, MCF-7, Hill fit, read-out: log10(EC50) (converted)) was 1.89 µM. The EC50 (MCF-7 cells [3]; MCF7, MCF-7 cell line, CellTiter-Glo, read-out: EC50, CTG (converted)) was 10.8 µM, the “DoR CTG” value (MCF-7 cells [3]; MCF-7 cell line, depth of response, CellTiter-Glo) was 0.9 and the “Hill Slope” value (BT-474 cells [4]; 24 h CTG, BT-474, Hill fit) was 0.5388. For the same molecule, the “Min Asymptote” value (BT-474 cells [4]; 24 h CTG) was 0.925, the “Hill Slope” value (BT-474 cells [4]; 72 h CTG, BT-474, Hill fit) was 1.185 and 1.042 and the “log10(EC50)” value (BT-474 cells [4]; 72 h CTG, BT-474, Hill fit) was 0.7667. For the same molecule, the “Min Asymptote” value (BT-474 cells [4]; 72 h CTG) was 0.938 (2×) and 0.9222, the “DoR CTG” value (BT-474 cells [4]; BT-474 cell line, depth of response, CellTiter-Glo) was 0.1 and the EC50 (BT-474 cells [4]; BT-474, 24 h, 24 h CTG, BT-474, Hill fit, read-out: log10(EC50) (converted)) was 10.9 µM. It also gave an EC50 (BT-474 cells [4]; BT-474, BT-474 cell line, CellTiter-Glo, read-out: EC50, CTG) of 0.1 µM.
